The source of these data is patent publication EP2108954A1, “A test system for detecting intracellular cyclic nucleotide level and methods and uses thereof” (Max-Planck-Gesellschaft zur Förderung der Wissenschaften …, priority 2008, dated 2009).

Several values for one entry are separate records, joined by “and”; a condition that tells them apart may be missing. Equal entries are not always repeated.

The target in one assay is T1, Or47a and Or83b (Drosophila melanogaster, UniProt P81921+Q9VNB5).
T1 construct: expressed in transfected cells; host or cells: HEK293
T1 sequence (P81921 1-385): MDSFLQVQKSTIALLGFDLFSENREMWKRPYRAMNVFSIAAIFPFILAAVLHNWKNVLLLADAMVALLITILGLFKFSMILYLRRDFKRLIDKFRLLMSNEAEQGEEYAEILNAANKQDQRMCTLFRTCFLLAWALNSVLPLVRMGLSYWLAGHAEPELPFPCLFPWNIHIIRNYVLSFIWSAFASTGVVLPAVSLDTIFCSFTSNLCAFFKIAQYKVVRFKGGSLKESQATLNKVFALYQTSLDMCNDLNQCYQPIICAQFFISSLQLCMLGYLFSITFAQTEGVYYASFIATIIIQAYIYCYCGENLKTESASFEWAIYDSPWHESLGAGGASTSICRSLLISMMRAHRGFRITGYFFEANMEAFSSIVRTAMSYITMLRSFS
T1 sequence (Q9VNB5 1-486): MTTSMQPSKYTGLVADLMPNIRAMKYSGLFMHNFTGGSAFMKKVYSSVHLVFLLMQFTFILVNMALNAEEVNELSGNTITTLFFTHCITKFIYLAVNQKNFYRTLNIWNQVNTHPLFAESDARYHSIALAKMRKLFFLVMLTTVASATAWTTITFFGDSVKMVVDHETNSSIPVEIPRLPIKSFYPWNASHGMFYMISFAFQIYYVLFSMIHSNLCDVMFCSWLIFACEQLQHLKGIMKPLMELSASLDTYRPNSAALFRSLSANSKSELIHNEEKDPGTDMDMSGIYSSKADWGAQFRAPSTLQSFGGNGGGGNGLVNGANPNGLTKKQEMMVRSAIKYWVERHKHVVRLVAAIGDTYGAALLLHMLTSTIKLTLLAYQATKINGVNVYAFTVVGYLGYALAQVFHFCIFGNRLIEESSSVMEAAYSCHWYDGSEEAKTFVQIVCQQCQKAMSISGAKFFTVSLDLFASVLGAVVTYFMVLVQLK
The assay can be described thus: Whole-cell patch-clamp of HEK293 cells expressing Or47a and Or83b. Format: cell-based. The following applies: 100 µM; -100 mV (Fig. 7). How it is done: (§1) In some experiments we transfected cells with pcDNA3-DOR22a-GFP or pcDNA3-DOR83b-GFP alone. We also examined the properties of DOR47a, which was cloned, using standard molecular biology methods into a pcDNA3.1(-) expression vector. To test for putative G-protein coupling, cells were transfected with the respective OR-DNA together with 1.5 µg hHCN2/pcDNA3 (provided by M. Biel, Munich, Germany), with 1 µg hKCNQ4/pcDNA3.1 or with 1 µg hCNGA2/pCMV6-XL4 (Origene, Rockville, MD, USA).
(§2) In brief, ion currents in HEK293 cells were measured at room temperature using whole-cell patch-clamp with appropriate compensation of series resistance and of capacitive currents. Additional experiments were performed in the outside-out configuration. Current measurements and data acquisition were performed using an EPC9 patch-clamp amplifier controlled by PatchMaster software (both HEKA Elektronik, Lambrecht, Germany). Patch-clamp pipettes were fabricated from borosilicate capillaries. Pipettes for whole-cell recordings had resistances of 2-4 MΩ for excised-patch recordings the pipette resistance was up to 15 MΩ.
Background: In patch-clamp work, channel activity is measured electrically.

The target in assay [1] is Periplaneta adipokinetic hormone receptor (pAKHR) (Periplaneta). Kind of assay: cell-based or functional assay.
Another assay concerns the target T2, vertebrate CNGA2 channel (Rattus norvegicus, UniProt Q00195).
T2 sequence (Q00195 1-664): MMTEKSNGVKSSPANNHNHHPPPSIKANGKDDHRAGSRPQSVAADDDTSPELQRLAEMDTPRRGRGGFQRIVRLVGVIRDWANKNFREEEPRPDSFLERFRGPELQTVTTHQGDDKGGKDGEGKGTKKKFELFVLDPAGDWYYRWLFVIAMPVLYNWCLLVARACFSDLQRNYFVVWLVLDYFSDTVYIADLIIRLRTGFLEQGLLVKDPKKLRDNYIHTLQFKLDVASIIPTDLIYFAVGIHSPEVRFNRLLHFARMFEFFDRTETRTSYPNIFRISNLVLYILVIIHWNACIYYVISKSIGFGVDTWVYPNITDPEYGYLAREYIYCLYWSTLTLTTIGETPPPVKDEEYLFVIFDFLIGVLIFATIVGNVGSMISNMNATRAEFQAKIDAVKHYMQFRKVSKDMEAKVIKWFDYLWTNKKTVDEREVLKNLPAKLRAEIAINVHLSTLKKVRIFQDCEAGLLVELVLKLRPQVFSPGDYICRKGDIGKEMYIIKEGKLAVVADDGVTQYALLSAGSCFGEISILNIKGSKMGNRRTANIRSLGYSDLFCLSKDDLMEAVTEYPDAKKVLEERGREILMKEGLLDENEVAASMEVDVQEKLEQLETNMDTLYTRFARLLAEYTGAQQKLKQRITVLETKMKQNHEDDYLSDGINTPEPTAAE
The following applies: Dhallan et al., Nature 347 (1990); cited from earlier work.

Assay [2] deals with T3, Or83b (Drosophila melanogaster, UniProt Q9VNB5).
T3 sequence (Q9VNB5 1-486): T1 sequence (Q9VNB5 1-486)
Kind of assay: cell-based. The following applies: -60 mV, n = 10. How it is done: For this, HEK293 cells were cultured at a density of ∼2*10^4 per 35-mm dish and transfected with 1 µg pcDNA3-DOR83b-GFP (Neuhaus et al., Nat Neurosci 8: 15-17, 2005.) using Roti-Fect transfection kit (Roth, Karlsruhe, Germany). For electrophysiological experiments we only used cells showing GFP fluorescence (when illuminated at 470 nm) as indicator of putative OR expression.
For electrophysiological studies, ion currents in HEK293 cells were measured at room temperature in the inside-out configuration. Current measurements and data acquisition were performed using an EPC9 patch-clamp amplifier controlled by PatchMaster software (both HEKA Elektronik, Lambrecht, Germany). Patch-clamp pipettes were fabricated from borosilicate capillaries. Pipettes for whole-cell recordings had resistances of up to 15 MΩ. The bath solution contained (in mM) 140 KCI, 4 NaCl, 2.2 CaCl2, 2 Mg-ATP, 0.05 Na-GTP, 5 EGTA, 10 HEPES (pH 7.3), and the pipette solution contained (in mM) 135 NaCl, 5 KCI, 1 CaCl2, 1 MgCl2, 10 HEPES, 10 glucose (pH 7.4).

Assay [3] deals with modified cyclic nucleotide-gated ion channels. The following applies: US 07166463 and US 07341836; cited from earlier work.
Another assay deals with T4, Or22a and Or83b (Drosophila melanogaster, UniProt P81909+Q9VNB5).
T4 construct: expressed in transfected cells; host or cells: HEK293
T4 sequence (P81909 1-397): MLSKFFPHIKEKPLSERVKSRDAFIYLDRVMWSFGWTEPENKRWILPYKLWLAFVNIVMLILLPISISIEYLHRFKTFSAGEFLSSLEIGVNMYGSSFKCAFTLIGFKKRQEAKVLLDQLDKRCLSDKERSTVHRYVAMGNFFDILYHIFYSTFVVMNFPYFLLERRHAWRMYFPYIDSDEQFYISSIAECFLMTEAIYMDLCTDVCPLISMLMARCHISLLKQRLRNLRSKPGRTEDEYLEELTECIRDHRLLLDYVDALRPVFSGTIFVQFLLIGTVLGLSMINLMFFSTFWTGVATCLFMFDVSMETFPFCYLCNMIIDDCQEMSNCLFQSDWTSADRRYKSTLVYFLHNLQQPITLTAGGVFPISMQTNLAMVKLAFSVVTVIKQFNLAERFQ
T4 sequence (Q9VNB5 1-486): T1 sequence (Q9VNB5 1-486)
The assay can be described thus: Whole-cell patch-clamp of currents in HEK293 cells coexpressing Or22a and Or83b. Type of assay: cell-based. The following applies: absence of Etb; 10 µM benzaldehyde; n = 6. Here is the method: as §1, §2
(§3) To differentiate between ionotropic and metabotropic pathways of receptor activation (Fig. 2a-d) the pipette solution contained either 2 mM ATP plus 2 mM GTP or 2 mM ADP plus 2 mM GDP (both for whole-cell and outside-out configuration). For the preparation of Cl^--free solutions the chloride salts were substituted by gluconate salts. The pipette Cs^+ solution contained (in mM) 140 CsCl, 1 Mg-ATP, 10 EGTA, 10 HEPES (pH = 7.3), and the Cs^+ bath solution contained (in mM) 140 CsCl, 15 glucose, 15 HEPES (pH = 7.4). The Ca^2+-free bath solution contained (in mM) 140 NaCl, 15 glucose, 15 HEPES, and the Na^+-free bath solution contained (in mM) 140 NMDG-Cl, 10 CaCl2, 10 glucose, 15 HEPES.
(§4) With the exception of GDP-γ-S, which was applied via the patch pipette, all substances were applied to the bath using either a bath perfusion system (BPS4 from ALA, New York, USA) or a rapid solution changer (RSC160 from Biologic, Claix, France) which were controlled by the PatchMaster software (HEKA Elektronik).

Assay [4] addresses T3, Or83b. Kind of assay: Whole-cell patch-clamp of HEK293 cells expressing Or83b alone. The arrangement: expressed in transfected cells; host or cells: HEK293. Type of assay: cell-based. How it is done:
as §1, §2, §3, §4

The target in assay [5] is T3, Or83b. The assay can be described thus: Calcium imaging (fura-2) in HEK293 cells expressing Or83b. Format: cell-based. The arrangement: expressed in transfected cells; host or cells: HEK293. The following applies: cell expressing Or83b (Fig. 6e). Here is the method: Free intracellular Ca^2+ concentration ([Ca^2+]i) was determined by fura-2 fluorescence as described (Messutat et al., Cell Calcium 30, 199-211. (2001)). In brief, cells were loaded with fura-2 by incubation in bath solution containing 2 µM fura-2/acetomethylester for 20 min. Free intracellular Ca^2+ concentration ([Ca^2+]i) was determined with the fluorescence ratio method. Excitation of fura-2 at 340 and 380 nm was performed with a monochromator (Polychrome II, T.I.L.L. Photonics, Gräfelfing, Germany) coupled via an epifluorescence condenser into an Axioskop FS microscope (Carl Zeiss, Jena, Germany) with a water immersion objective (LUMPFL 40xW/IR/0.8; Olympus, Hamburg, Germany). […] [Ca^2+]i was calculated according to the equation [Ca^(2 +)]i = Keff (R-Rmin)/(Rmax-R). […] Keff, Rmin, and Rmax were determined using HEK293 cells permeabilized with 2 µM ionomycin and three solutions with different concentrations of free Ca^2+ (Ca^2+ free; 5 mM Ca^2+; 500 nM Ca^2+; the composition of the 500 nM solution was calculated with WEBMAXC v.2.20) (Patton et al., Cell Calcium 35, 427-31 (2004)). […]
Fluorescence images were acquired using a cooled CCD camera controlled by TILLVision 4.0 software (T.I.L.L. Photonics). […] Image pairs were obtained by excitation for 100 ms at 340 nm and 380 nm; background fluorescence was subtracted.

For `CCCCCOC(C)=O` [PA, pentyl acetate], at Or47a and Or83b, the “current response of cells” value is listed as “responding”.

“adipokinetic hormone I (AKH I) (peptide)”: in assay [1], the membrane current at -100 mV (whole-cell patch clamp, ramp protocol) in HEK293 cells coexpressing pAKHR and the cAMP-activated channel Or83b, after application of AKH I is 294 pA.

With `Nc1nc2c(ncn2[C@@H]2O[C@@H]3COP(=O)(O)O[C@H]3[C@H]2O)c(=O)[nH]1` [cGMP, cyclic guanosine monophosphate], the EC50 (usually the concentration needed to bring the measured effect to its halfway point) on vertebrate CNGA2 channel was 1000 nM.

For the molecule `Nc1ncnc2c1ncn2[C@@H]1O[C@@H]2COP(=O)(O)O[C@H]2[C@H]1O` [cAMP, 3'-5'-cyclic adenosine monophosphate], on Or83b [2], the “Hill coefficient of mean currents of inside-out patches” value was 0.42. For the same molecule, the EC50 is 1 nM and 1.1 nM on Or83b [2] (EC50 of mean currents of inside-out patches); 14500 nM in assay [3].

For `O=Cc1ccccc1` [Bea, benzaldehyde], at Or22a and Or83b, the “effect on current recorded under control conditions” value was “reduced the current recorded under control conditions”.

With `CCCCCCOC(=O)C1(O)CC2OC1(C)n1c3ccccc3c3c4c(c5c6ccccc6n2c5c31)C(=O)NC4` (stereo not drawn) [KT5720], the “effect of preincubation on ion currents elicited by 8-bromo-cAMP” value at Or83b [4] (10 µM, n = 6) is recorded as “not significantly altered”.

With `Nc1nc2c(nc(Br)n2[C@@H]2O[C@@H]3COP(=O)(O)O[C@H]3[C@H]2O)c(=O)[nH]1` [8-bromo-cGMP], the “current response of cells” value on Or47a and Or83b is “responsive”. On Or83b [4] (Or83b-expressing HEK293 cells), the current elicited result is given as “elicited a current similar to that obtained upon 8-bromo-cAMP application”. Moreover, the “agonist comparison for current activation” value on Or83b [4] (concentration-response relations, -100 mV (Fig. 6d)) is given as “significantly better agonist than 8-bromo-cAMP”. In addition, at Or83b [5], the “agonist comparison for the elevation of [Ca^2+]i” value was “significantly better agonist than 8-bromo-cAMP”.
